Some test systems named below: MDA-MB-231 breast; T-47D breast; COLO 205 colon; SNB-75 CNS; M14 melanoma; A498 renal; HCT-116 colon; CAKI-1 renal; SK-MEL-2 melanoma; SF-268 CNS; PC-3 prostate.
Experiment in all cases: NCI anticancer screen, dose series, 48 h

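Values below derive from 48-hour exposures of cells grown in 96-well plates, with endpoints linearly interpolated between the two concentrations bracketing the appropriate inhibition level. TGI: concentration producing complete growth inhibition.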

With `COc1ccc(C2C3=C(COC3=O)Oc3cc4c(cc32)OCO4)cc1OC` (configuration not stated), the TGI is more than 100 µM in the experiment on MDA-MB-231 breast; more than 100 µM in the experiment with T-47D breast; 18.1 µM in the experiment with COLO 205 colon; more than 100 µM in the experiment with SNB-75 CNS; more than 100 µM in the experiment with M14 melanoma; 8.18 µM with A498 renal. Besides, the TGI in the experiment on HCT-116 colon was more than 86.1 µM; in the experiment on CAKI-1 renal, more than 100 µM; with SK-MEL-2 melanoma, more than 100 µM; in the experiment on SF-268 CNS, more than 100 µM; with PC-3 prostate, more than 31.3 µM.

As for `CC(=O)N1CCOC12N=NC(C)(C)O2` (configuration not stated), the TGI in the experiment on MDA-MB-231 breast, in the experiment with T-47D breast, in the experiment on COLO 205 colon, with SNB-75 CNS, with M14 melanoma and in the experiment on A498 renal was more than 100 µM each time. For the same molecule, the TGI in the experiment with HCT-116 colon, in the experiment on CAKI-1 renal, in the experiment on SK-MEL-2 melanoma, in the experiment with SF-268 CNS and in the experiment on PC-3 prostate was more than 100 µM throughout.

On to `Cc1ccc(N=Nc2c(O)ccc3ccccc23)c(C)c1`, for which the TGI with MDA-MB-231 breast, in the experiment on T-47D breast, in the experiment with COLO 205 colon, in the experiment with SNB-75 CNS, with M14 melanoma and in the experiment with A498 renal was more than 100 µM throughout. Moreover, the TGI with HCT-116 colon, with CAKI-1 renal, with SK-MEL-2 melanoma, with SF-268 CNS and in the experiment on PC-3 prostate was more than 100 µM each time.

In the case of `C/C(CC(O)(C(F)(F)F)C(F)(F)F)=N\O`, the TGI in the experiment with MDA-MB-231 breast, with T-47D breast, in the experiment on COLO 205 colon, in the experiment on SNB-75 CNS, in the experiment with M14 melanoma and in the experiment with A498 renal was more than 10 µM each time. Moreover, the TGI in the experiment on HCT-116 colon, with CAKI-1 renal, with SK-MEL-2 melanoma, in the experiment on SF-268 CNS and in the experiment on PC-3 prostate was more than 10 µM in each case.

Turning to `Cc1cccc(NC(=S)Nc2cccc(Cl)c2)n1`, the TGI in the experiment on MDA-MB-231 breast, in the experiment with T-47D breast, in the experiment on COLO 205 colon, in the experiment with SNB-75 CNS, with M14 melanoma and in the experiment with A498 renal was more than 100 µM in each case. Also, the TGI in the experiment with HCT-116 colon, in the experiment on CAKI-1 renal, in the experiment on SK-MEL-2 melanoma, in the experiment with SF-268 CNS and with PC-3 prostate was more than 100 µM each time.

As for `O=C1CC(c2cccc([N+](=O)[O-])c2)C2(C(=O)NC(=S)NC2=O)C(c2cccc([N+](=O)[O-])c2)C1` (configuration not stated), the TGI in the experiment with MDA-MB-231 breast is 62.4 µM; with T-47D breast it was more than 100 µM; in the experiment on COLO 205 colon, more than 100 µM; in the experiment on SNB-75 CNS, more than 100 µM; with M14 melanoma it was 58.5 µM; in the experiment with A498 renal, more than 100 µM. The TGI was 43.7 µM in the experiment on HCT-116 colon; 64.3 µM with CAKI-1 renal; more than 100 µM in the experiment on SK-MEL-2 melanoma; 43.4 µM in the experiment with SF-268 CNS; more than 100 µM in the experiment on PC-3 prostate.

As for `Cc1noc(-c2ccc(C(=O)O)[nH]2)c1Br`, the TGI in the experiment with MDA-MB-231 breast is more than 100 µM; in the experiment on T-47D breast, 71.4 µM; in the experiment with COLO 205 colon, more than 100 µM; in the experiment with SNB-75 CNS it was more than 100 µM; in the experiment with M14 melanoma it was more than 100 µM; with A498 renal it was more than 100 µM. Also, the TGI in the experiment on HCT-116 colon, in the experiment with CAKI-1 renal, in the experiment on SK-MEL-2 melanoma, in the experiment on SF-268 CNS and with PC-3 prostate was more than 100 µM throughout.

Take `C=CCCCN(C(=O)c1ccccc1)c1ccc(C(=O)OC)o1`: the TGI in the experiment with MDA-MB-231 breast, in the experiment on T-47D breast, in the experiment on COLO 205 colon, in the experiment with SNB-75 CNS, in the experiment with M14 melanoma and in the experiment with A498 renal was more than 100 µM throughout. The TGI in the experiment on HCT-116 colon, in the experiment on CAKI-1 renal, in the experiment on SK-MEL-2 melanoma, in the experiment on SF-268 CNS and in the experiment with PC-3 prostate was more than 100 µM throughout.

Take `C[C@H](CCc1nc(C#N)c(N)o1)[C@H]1CC[C@H]2[C@@H]3CCC4C[C@@H](O)CC[C@]4(C)[C@H]3C[C@@H](O)[C@]12C` (some centres not stated): the TGI in the experiment on MDA-MB-231 breast came to 32.7 µM; with T-47D breast it was 30.3 µM; with COLO 205 colon, 31.2 µM; with SNB-75 CNS, 25 µM; in the experiment on M14 melanoma, 34.2 µM; with A498 renal, 36.6 µM. Further, the TGI in the experiment with HCT-116 colon was 26.4 µM; in the experiment on CAKI-1 renal, 28.4 µM; in the experiment with SK-MEL-2 melanoma, 32.2 µM; with SF-268 CNS, 27.8 µM; with PC-3 prostate, 16.3 µM.

`COC1(C)CCC(OS(C)(=O)=O)CO1` (configuration not stated): the TGI with MDA-MB-231 breast, in the experiment on T-47D breast, in the experiment with COLO 205 colon, in the experiment on SNB-75 CNS, in the experiment with M14 melanoma and in the experiment with A498 renal was more than 100 µM throughout. The TGI in the experiment with HCT-116 colon, in the experiment on CAKI-1 renal, with SK-MEL-2 melanoma, in the experiment on SF-268 CNS and in the experiment with PC-3 prostate was more than 100 µM in each case.

For the molecule `C[C@@H]1C[C@@H]2OC(=O)[C@]3(C)[C@H]2[C@@H](OC3(C)O)[C@]2(C)C(=O)C=C[C@@H]12` (some centres not stated), the TGI is 64.5 µM with MDA-MB-231 breast; 44.5 µM with T-47D breast; 32 µM with COLO 205 colon; more than 100 µM in the experiment on SNB-75 CNS; 41.8 µM in the experiment on M14 melanoma; 70.6 µM with A498 renal. Further, the TGI with HCT-116 colon is 37.6 µM; with CAKI-1 renal, 62.1 µM; in the experiment on SK-MEL-2 melanoma, 54.7 µM; in the experiment on SF-268 CNS it was more than 100 µM; in the experiment on PC-3 prostate it was more than 100 µM.

As to `CC1=NN(c2ccccc2)C(=O)/C1=C\c1c(C)[nH]n(-c2ccccc2)c1=O`, the TGI in the experiment with MDA-MB-231 breast, with T-47D breast, in the experiment on COLO 205 colon, in the experiment on SNB-75 CNS, in the experiment with M14 melanoma and in the experiment on A498 renal was more than 100 µM throughout. Further, the TGI in the experiment with HCT-116 colon, with CAKI-1 renal, with SK-MEL-2 melanoma, with SF-268 CNS and in the experiment with PC-3 prostate was more than 100 µM in each case.
